Reference: PubChem BioAssay (NCI)
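Exposure lasted 48 hours, with cells grown in 96-well plates and compounds tested at five concentrations. TGI is the concentration that stops growth completely.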 Where a SMILES comes first, the peptide text is derived from it.

How the values were obtained:
Assay in all cases: NCI tumour cell line growth inhibition, 48 h
[1] = system: SR leukemia
[2] = system: MDA-MB-231 breast
[3] = system: ACHN renal
[4] = system: UACC-257 melanoma
[5] = system: HS 578T breast
[6] = system: SW-620 colon
[7] = system: SNB-75 CNS
[8] = system: SNB-19 CNS
[9] = system: SF-268 CNS
[10] = system: A549 NSCLC

Row | Compound | TGI [1] [µM] | TGI [2] [µM] | TGI [3] [µM] | TGI [4] [µM] | TGI [5] [µM] | TGI [6] [µM] | TGI [7] [µM] | TGI [8] [µM] | TGI [9] [µM] | TGI [10] [µM]
1 | CC(=O)c1cccc(NC(=O)C(=O)C(c2cnc3ccc([N+](=O)[O-])cc3n2)[N+](=O)[O-])c1 (stereo not drawn) | > 100 | > 100 | > 100 | > 100 | > 100 | > 100 | > 100 | > 100 | > 100 | 
2 | O=c1c2cc(I)ccc2nc(SCc2n[nH]c(=S)o2)n1Cc1ccccc1 | > 100 | 33.3 | 28.6 | 38.1 | 44.3 | 39.6 | 23.1 | 55.5 | 32.9 | 48.4
3 | O=C1c2ccccc2CC12Cc1ccccc1C2 | 83.5 | > 100 | > 100 | 54.2 | > 100 | > 100 | 90.3 | > 100 | > 100 | > 100
4 | N#Cc1c(Cl)nc2ccccc2c1N=[N+]=[N-] | 3.93 | 3.62 | 4.11 | 27.8 | 17.3 | 3.54 | 21.9 | 29.7 | 11.2 | 35.3
5 | CN(C)c1ccc(-c2ccc(N(C)C)c3n[se]nc23)c2n[se]nc12 | > 100 | > 100 | > 100 | > 100 | > 100 | > 100 | > 100 |  | > 100 | > 100
6 | CCCCCCOc1ccc(C(=O)N(C)O)cc1 | 39.6 | > 100 | 30.3 | > 100 | > 100 | > 100 | > 94.4 | > 100 | 55.7 | 56.6
7 | Cc1sc(C)c2c1C(=O)CC2N (stereo not drawn) | > 100 | 57 | 31.2 | 33.3 | 98 | 26.3 | > 83.1 | > 100 | > 57.3 | > 100
8 | CN(C)CC1CCCCCCCCCC(CN(C)C)C1=O (stereo not drawn) | > 100 | 84.6 | > 46.3 | > 48.1 | 24.1 | > 45.5 | > 44.9 | > 55.6 | > 53.9 | > 51.5
9 | O=C(O)C1(Cc2ccc3c(c2)CCC3)Cc2ccccc2C1 | > 100 | > 100 | > 100 | > 100 | > 100 | > 100 | > 100 | > 100 | > 100 | > 100
10 | O=c1oc2ccc(Cl)cc2cc1-c1cn2ccccc2n1 | > 100 | > 52.7 | 8.54 | > 100 | > 100 | > 100 | > 41.3 | > 21 | 99.3 | > 89.3
11 | COc1ccc(/C=C2/NC(=S)N=C2Cl)cc1 | > 100 | > 100 | > 100 | > 100 | > 100 | > 100 | > 100 | > 100 | > 100 | > 100
12 | O=C(NCCN1CCCCC1)c1ccc(I)cc1 | > 100 | > 100 | > 100 | > 100 | > 100 | > 100 | > 100 | > 100 | > 100 | > 100
13 | Clc1ccc(-c2ccc(-c3nnc(COc4ccc(OCc5nnc(-c6ccc(-c7ccc(Cl)cc7Cl)o6)o5)c(Cl)c4)o3)o2)c(Cl)c1 | 74.8 | > 100 | > 100 | > 100 | > 100 | > 100 |  | > 100 | > 100 | > 100
14 | Cc1ccc(N2CCN(CCC(=O)O)CC2)cc1 | > 100 | > 100 | > 100 | > 100 | > 100 | > 100 | > 100 | > 100 | > 100 | > 100
15 | N#Cc1c(O)c(N=Nc2ccc(Cl)cc2)c(=O)n2c1[nH]c1ccccc12 | > 100 | > 100 | > 100 | > 100 | > 100 | > 100 | > 100 | > 100 | > 100 | > 100
16 | C=C(C)C(O)C(O)C[C@@H](C)C1CC[C@]23C[C@]12CCC1[C@@]2(C)CCC(OC(C)=O)C(C)(C)C2CC(OC2OC(CO)C(O)C(O)C2O)[C@]13C (stereo partly drawn) | 36.3 | 28.2 | > 100 | 31.4 | 39.6 | 30.8 | 43 | 45.1 | 33 | > 100
17 | NC(=O)/C=c1/c2ccccc2n2nc3ccccc3c12 | 6.16 | 7.52 | 29.1 | 41 | 87.6 | 44.5 |  | 49.3 | 47.5 | > 100
18 | CN(C)C=NCCN1CCOCC1 | > 100 | > 100 | > 100 | > 100 | > 100 |  | > 100 | > 100 | > 100 | > 100
19 | C=C1C(=O)OC2CC(=C)C3CC=C(C)C3CC12 (stereo not drawn) | 55.6 | 63.7 | 47.8 | 27.5 | > 100 | 32.4 |  | 54.5 | > 100 | > 100
20 | CC1(C)C2CC3C4CC5(Nc6ccccc6C5N41)[C@]3(C)CC2=O (stereo partly drawn) | > 50 | > 50 | > 50 | > 50 | > 50 | > 50 | > 50 |  | > 50 | > 50
21 | O=C(CCCl)NNC1=NCCCCN1 | > 100 | > 100 | > 100 | > 100 | > 100 | > 100 | > 100 | > 100 | > 100 | > 100
22 | O=C1N[C@@H]2c3c(Br)sc(Br)c3C(=O)[C@@H]2O1 | 4.03 | 5.83 | 3.48 | 8.76 | 78.7 | 4.04 | 16.7 | 30.3 | 28.7 | 32.6

Row | Compound | TGI [1] [µM] | TGI [2] [µM] | TGI [3] [µM] | TGI [4] [µM] | TGI [5] [µM] | TGI [6] [µM] | TGI [7] [µM] | TGI [8] [µM] | TGI [9] [µM] | TGI [10] [µM]
23 | CN1C=Cc2nccc3cc4c(c1c23)OCO4 | 10.9 | 29 | 19.3 | 16.9 | > 77.3 | > 100 | 5.3 | 41 | 11.3 | > 55.4
24 | CC(C)C(C/C=C1/CC(CO)(COC(=O)c2ccccc2)OC1=O)C(C)C (stereo not drawn) | > 100 | 32.8 | 28.2 | 62.4 | 24.3 | 31.9 | 20.3 | 31.1 | 31.8 | 26.5
25 | CCOC(=O)/C=C/[C@H](O)[C@@H](O)/C=C/C(=O)OCC | 40 | > 100 | 60 | > 100 | > 100 | 40.6 | > 100 | 58.2 | > 100 | > 100
26 | O=C(NC(Nc1ccc(F)cc1)(C(F)(F)F)C(F)(F)F)C(C(F)(F)F)C(F)(F)F | > 95.8 | > 100 | > 100 | > 100 | > 90.5 | > 100 | > 100 | > 100 | > 100 | > 100
27 | CC(C)(C)OC(=O)c1ccc(NCC2=CC(=O)C=CC2=O)cc1 | > 23.1 | 21.6 | 22.2 | 24.9 | 46 | 22.6 | 24.3 | 31.4 | 24.3 | 40.1
28 | CC1=CC(C)C(C)N(CCNS(=O)(=O)c2ccc(C)cc2)c2ccccc21 (stereo not drawn) | > 31.6 | 24.2 | 29.2 | 34.2 | 20.7 |  | 23.4 | > 31.6 | 19.6 | > 31.6
29 | CC(C)(C)c1cc(OCc2nnc3sc(=S)[nH]n23)c(Cl)cc1OCc1nnc2sc(=S)[nH]n12 | 50.8 | > 100 | 76.8 | 83.8 | > 100 | > 100 | 92 | > 100 | > 100 | > 100
30 | O=C(O)CN1CCN(CC(=O)N2CCN(C(=O)OCc3ccccc3)CC2)CCN(CC(=O)O)CCN(CC(=O)N2CCN(C(=O)OCc3ccccc3)CC2)CC1 | > 100 | > 100 | > 100 | > 100 | > 100 | > 100 | > 100 | > 100 |  | > 100
31 | O=c1c2cc(Cl)ccc2[nH]c2cc(O)cc(O)c12 | > 10 | > 10 | > 10 | > 10 | > 10 | > 10 | > 10 | > 10 | > 10 | > 10
32 | CC1Cc2cc(O)c(O)cc2-c2cc(O)c(O)cc2CC1C (stereo not drawn) | 33 | 24.5 | 87.1 | 29.1 | 61.7 | 42.5 | > 100 | 96.2 | > 100 | 71.1
33 | O=C(Cc1nc2ncccc2[nH]c1=O)c1c[nH]c2ccccc12 | 96.2 | 35.3 | 30.1 | 36.1 | 40.8 | 40.5 |  | 35.7 | 30.5 | 47.8
34 | O=C1NC(=O)/C(=C/c2ccc(S(=O)(=O)N/N=C\C(O)C(O)C(O)C(O)CO)cc2)N1 (stereo not drawn) | > 100 | > 100 | > 100 | > 100 | > 100 | > 100 | > 100 | > 100 | > 100 | > 100
35 | CC(C)CC(NC(=O)C(Cc1ccccc1)NC(=O)C(Cc1c[nH]c2ccccc12)NC(=O)CNC(=O)C(N)Cc1ccc(O)cc1)C(=O)O (stereo not drawn) (H-YGWFL-OH; configuration not given here) | > 100 | > 100 | > 100 | > 100 | > 100 |  | 93.9 | > 100 | > 100 | > 100
36 | N#Cc1c(O)cc(=O)n2c1[nH]c1ccccc12 | > 100 | > 100 | > 100 | > 100 | > 100 | > 100 | > 100 | > 100 | > 100 | > 100
37 | C=CC(Br)(CBr)CCC(Br)C(C)(C)Cl (stereo not drawn) | 3.78 | 6.95 | 6.07 | 10.6 | 14.7 | 5.67 | 8.72 | 4.51 | 4.51 | 28.6
38 | Oc1cccc2cc(Br)cnc12 | > 52 | > 47.1 | > 69.2 | 27.3 | > 92.6 | > 100 | > 83.2 | > 100 | > 33.9 | > 100
39 | COC(=O)c1ccccc1/C=C1\Cc2c(C)cc(C)cc2C1=O | > 100 | > 100 | > 100 | > 100 | > 100 | > 100 | > 100 | > 100 | > 100 | > 100
40 | CCCCCCCCCCCCOc1ccc(/C=C/C2=[N+](CCCl)CCO2)cc1 | 50.9 | > 100 | > 100 | > 100 | > 100 | > 100 | > 100 | > 100 |  | > 100
41 | NCCSCc1ccccc1Cl | 55.7 | > 100 | > 100 | 51.9 | > 100 | > 100 | > 100 | > 100 | > 100 | > 100
42 | COc1ccc(N=Nc2c(C)c(C#N)c(=S)n(C3OC(CO)C(O)C(O)C3O)c2C)cc1 (stereo not drawn) | 87.1 | > 100 | > 100 | > 100 | > 100 | > 100 | > 100 | > 100 | > 100 | > 100
43 | CCN(CC)/[N+]([O-])=N/OCOC(C)=O | > 100 | > 100 | > 100 | > 100 | > 100 | > 100 | > 100 | > 100 | > 100 | > 100
44 | COC(=O)[C@@H](Cc1ccccc1)N1O[C@]12CCCC[C@@H]2NC(=O)OC(C)(C)C (stereo partly drawn) | 74.4 | 42.4 | 32.5 | > 100 | 55.8 | 29.3 | 77.3 | > 100 | 34.9 | > 100
